In patent publication US12655116B2, “Substituted isophthalic acid diamides” (Bayer Aktiengesellschaft, priority 2020, dated 2026):

How the values were obtained:
HORMU [1] = test: Pre-emergence herbicidal action against HORMU; format: in vivo, Hordeum murinum; details: Hordeum murinum, 504 h, pre-emergence
In short: (§1)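 Pre-emergence soil-surface spray of formulated compound (WP or EC; 600 to 800 l/ha; 0.2% wetting agent) over seeds sown in sandy loam. After 3 weeks under greenhouse conditions, damage is estimated visually in percent against untreated plants.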

VERPE [2] = test: Pre-emergence herbicidal action against VERPE; format: in vivo, Veronica persica; details: Veronica persica, 504 h; for pest or weed control at 80 g/ha: dosage 80 g/ha
In short: as §1

VERPE [3] = test: Post-emergence herbicidal action against VERPE; format: in vivo, Veronica persica; details: Veronica persica, 504 h
In short: (§2)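 Spray, one-leaf stage: WP or EC compound in water, 600–800 l/ha, 0.2% wetting agent. Plants held about 3 weeks in the greenhouse, then visually rated in percent of kill compared with untreated controls.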

AMARE [4] = test: Post-emergence herbicidal action against AMARE; format: in vivo, Amaranthus retroflexus; details: Amaranthus retroflexus, 504 h, visual assessment about 3 weeks after treatment, 100% = plants have died, 0% = like control plants
In short: as §2

ECHCG [5] = test: Post-emergence herbicidal action against ECHCG; format: in vivo, Echinochloa crus-galli; details: Echinochloa crus-galli, 504 h; for pest or weed control at 20 g/ha: dosage 20 g/ha
In short: as §2

AVEFA [6] = test: Post-emergence herbicidal action against AVEFA; format: in vivo, Avena fatua; details: Avena fatua, 504 h, visual assessment about 3 weeks after treatment, 100% = plants have died, 0% = like control plants
In short: as §2

STEME [7] = test: Post-emergence herbicidal action against STEME; format: in vivo, Stellaria media; details: Stellaria media, 504 h
In short: as §2

AVEFA [8] = test: Pre-emergence herbicidal action against AVEFA; format: in vivo, Avena fatua; details: Avena fatua, 504 h, pre-emergence
In short: as §1

HORMU [9] = test: Post-emergence herbicidal action against HORMU; format: in vivo, Hordeum murinum; details: Hordeum murinum, 504 h; for pest or weed control at 20 g/ha: dosage 20 g/ha
In short: as §2

PHBPU = test: Post-emergence herbicidal action against PHBPU; format: in vivo, Pharbitis purpurea; details: Ipomoea purpurea, 504 h
In short: as §2

MATIN [10] = test: Pre-emergence herbicidal action against MATIN; format: in vivo, Matricaria inodora; details: Tripleurospermum inodorum, 504 h; for pest or weed control at 80 g/ha: dosage 80 g/ha
In short: as §1

AMARE [11] = test: Pre-emergence herbicidal action against AMARE; format: in vivo, Amaranthus retroflexus; details: Amaranthus retroflexus, 504 h, 100% = plants have died, 0% = like control plants; for pest or weed control at 20 g/ha / pest or weed control at 80 g/ha: scored visually after 3 weeks vs untreated controls
In short: as §1

LOLRI [12] = test: Pre-emergence herbicidal action against LOLRI; format: in vivo, Lolium rigidum; details: Lolium rigidum, 504 h
In short: as §1

STEME [13] = test: Pre-emergence herbicidal action against STEME; format: in vivo, Stellaria media; details: Stellaria media, 504 h; for pest or weed control at 80 g/ha: dosage 80 g/ha
In short: as §1

ALOMY = test: Pre-emergence herbicidal action against ALOMY; format: in vivo, Alopecurus myosuroides; details: Alopecurus myosuroides, pre-emergence, 504 h
In short: as §1

VIOTR [14] = test: Pre-emergence herbicidal action against VIOTR; format: in vivo, Viola tricolor; details: Viola tricolor, 504 h; for pest or weed control at 80 g/ha: dosage 80 g/ha
In short: as §1

LOLRI [15] = test: Post-emergence herbicidal action against LOLRI; format: in vivo, Lolium rigidum; details: Lolium rigidum, 504 h, dosage 80 g/ha
In short: as §2

SETVI = test: Pre-emergence herbicidal action against SETVI; format: in vivo, Setaria viridis; details: Setaria viridis, 504 h; for pest or weed control at 80 g/ha: dosage 80 g/ha
In short: as §1

ABUTH = test: Pre-emergence herbicidal action against ABUTH; format: in vivo, Abutilon theophrasti; details: Abutilon theophrasti, 504 h; for pest or weed control at 80 g/ha: scored visually after 3 weeks vs untreated controls (100% = plants have died, 0% = like control plants); for pest or weed control at 20 g/ha: dosage 20 g/ha, scored visually after 3 weeks vs untreated controls, read-out: Pre-emergence action against ABUTH (herbicidal activity in percent)
In short: as §1

VIOTR [16] = test: Post-emergence herbicidal action against VIOTR; format: in vivo, Viola tricolor; details: Viola tricolor, 504 h
In short: as §2

ECHCG [17] = test: Pre-emergence herbicidal action against ECHCG; format: in vivo, Echinochloa crus-galli; details: Echinochloa crus-galli, 504 h
In short: as §1

MATIN [18] = test: Post-emergence herbicidal action against MATIN; format: in vivo, Matricaria inodora; details: Tripleurospermum inodorum, 504 h, dosage 20 g/ha
In short: as §2

POLCO = test: Post-emergence herbicidal action against POLCO; format: in vivo, Polygonum convolvulus; details: Fallopia convolvulus, 504 h, dosage 20 g/ha
In short: as §2

[19] = 320 g/ha, scored visually after 3 weeks, 100% = plants have died, 0% = like control plants
[20] = 100% = plants have died, 0% = like control plants
[21] = 20 g/ha, scored visually after 3 weeks, 100% = plants have died, 0% = like control plants

Cn1nnnc1NC(=O)c1ccc(C(F)(F)F)c(C(N)=O)c1Cl [Example 1-338]
90%: pest or weed control at 80 g/ha (VERPE [2]) | pest or weed control at 20 g/ha (AMARE [4]) | pest or weed control at 20 g/ha (ECHCG [5]) | pest or weed control at 80 g/ha (ECHCG [5]; dosage 80 g/ha) | pest or weed control at 80 g/ha (STEME [7]; 80 g/ha) | pest or weed control at 80 g/ha (AVEFA [8]) | pest or weed control at 80 g/ha (HORMU [9]; dosage 80 g/ha) | pest or weed control at 80 g/ha (PHBPU; dosage 80 g/ha) | pest or weed control at 320 g/ha (LOLRI [12]; 320 g/ha) | pest or weed control at 80 g/ha (STEME [13]) | pest or weed control at 320 g/ha (STEME [13]; dosage 320 g/ha) | pest or weed control at 80 g/ha (SETVI) | pest or weed control at 80 g/ha (VIOTR [16]; 80 g/ha) | pest or weed control at 80 g/ha (ECHCG [17])
100%: pest or weed control at 320 g/ha (HORMU [1]; 320 g/ha) | pest or weed control at 320 g/ha (VERPE [2]; dosage 320 g/ha) | pest or weed control at 80 g/ha (VERPE [3]; 80 g/ha) | pest or weed control at 80 g/ha (AMARE [4]; 80 g/ha) | pest or weed control at 80 g/ha (AVEFA [6]; 80 g/ha) | pest or weed control at 320 g/ha (AVEFA [8]; [19]) | pest or weed control at 320 g/ha (MATIN [10]; dosage 320 g/ha) | pest or weed control at 20 g/ha (AMARE [11]) | pest or weed control at 80 g/ha (AMARE [11]) | pest or weed control at 320 g/ha (AMARE [11]; 320 g/ha, scored visually after 3 weeks) | pest or weed control at 320 g/ha (ALOMY; [19]) | pest or weed control at 320 g/ha (VIOTR [14]; dosage 320 g/ha) | pest or weed control at 320 g/ha (SETVI; dosage 320 g/ha) | pest or weed control at 80 g/ha (ABUTH) | pest or weed control at 320 g/ha (ABUTH; Dosage: 320 g/ha, scored visually after 3 weeks, 100% = plants have died, 0% = like control plants) | pest or weed control at 320 g/ha (ECHCG [17]; 320 g/ha)
80%: pest or weed control at 20 g/ha (AVEFA [6]) | pest or weed control at 20 g/ha (HORMU [9]) | pest or weed control at 80 g/ha (MATIN [10]) | pest or weed control at 80 g/ha (VIOTR [14]) | pest or weed control at 80 g/ha (LOLRI [15]) | pest or weed control at 20 g/ha (ABUTH; [20])

CCn1nnnc1NC(=O)c1ccc(Cl)c(C(=O)NC2CC2)c1Cl [Example 2-173]
80%: pest or weed control at 80 g/ha (VERPE [2]) | pest or weed control at 20 g/ha (VERPE [3]; 20 g/ha) | pest or weed control at 5 g/ha (ECHCG [5]; dosage 5 g/ha) | pest or weed control at 5 g/ha (PHBPU; dosage 5 g/ha)
100%: pest or weed control at 80 g/ha (HORMU [1]; 80 g/ha) | pest or weed control at 20 g/ha (AMARE [4]) | pest or weed control at 20 g/ha (AVEFA [6]) | pest or weed control at 20 g/ha (STEME [7]; 20 g/ha) | pest or weed control at 5 g/ha (STEME [7]; dosage 5 g/ha) | pest or weed control at 80 g/ha (AVEFA [8]) | pest or weed control at 20 g/ha (HORMU [9]) | pest or weed control at 20 g/ha (MATIN [10]; dosage 20 g/ha) | pest or weed control at 80 g/ha (MATIN [10]) | pest or weed control at 20 g/ha (AMARE [11]) | pest or weed control at 80 g/ha (AMARE [11]) | pest or weed control at 20 g/ha (MATIN [18]) | pest or weed control at 20 g/ha (STEME [13]; dosage 20 g/ha) | pest or weed control at 80 g/ha (STEME [13]) | pest or weed control at 80 g/ha (ALOMY; 80 g/ha, scored visually after 3 weeks vs untreated controls (100% = plants have died, 0% = like control plants)) | pest or weed control at 20 g/ha (ALOMY; [21]) | pest or weed control at 80 g/ha (VIOTR [14]) | pest or weed control at 80 g/ha (SETVI) | pest or weed control at 80 g/ha (ABUTH) | pest or weed control at 20 g/ha (VIOTR [16]; 20 g/ha) | pest or weed control at 80 g/ha (ECHCG [17])
90%: pest or weed control at 20 g/ha (ECHCG [5]) | pest or weed control at 20 g/ha (AVEFA [8]; [21]) | pest or weed control at 20 g/ha (PHBPU; dosage 20 g/ha) | pest or weed control at 20 g/ha (POLCO) | pest or weed control at 80 g/ha (LOLRI [12]; 80 g/ha) | pest or weed control at 20 g/ha (ABUTH; [20])
